From patent US20080132565A1, “Polycyclic Macrolactones” (priority 2003, published 2008) come the findings set out here.

Read-outs that look alike come from different tables or passages of the source.

The nature of series [1]: physicochemical properties: solubility.
Series [2] concerns Arthrobacter aurescens DSM 20166. As to the kind of experiment: agar diffusion test. In kind it is cell-based. Conditions: CM, 10 μl per filter disk. The method, then: (§1) The Gram-negative bacteria and fungi which were tested were insensitive to the abyssomicins.
On the technique in general: Agar diffusion results depend on both activity and mobility in agar.

The test system of series [3] is Bacillus subtilis DSM 10. As to the kind of experiment: agar diffusion test. Particulars: 10 μl per filter disk. In kind it is cell-based. The method, then: as §1
The test system of series [4] is Brevibacillus brevis DSM 30. Description: agar diffusion test. Conditions: 10 μl per filter disk. The class given is cell-based. The method, then:
as §1

Series [5] deals with Rhodococcus erythropolis DSM 1069. Description: agar diffusion test. The class given is cell-based. Particulars: 10 μl per filter disk. The method, then: as §1
The subject of series [6] is Staphylococcus aureus DSM 20231. Description: agar diffusion test. The class given is cell-based. Conditions: CM, 10 μl per filter disk. How it is done: as §1
Series [7] deals with Streptomyces viridochromogenes Tü 57. Description: agar diffusion test. In kind it is cell-based. Particulars: CM, 10 μl per filter disk. How it is done:
as §1

The subject of series [8] is Bacillus subtilis DSM 10. Description: MIC dilution series test. Conditions: 2 ml test tube scale, shaker at 120 rpm. The class given is cell-based. The method, then:
(§2) The minimum inhibitory concentration (MIC) of abyssomicin C was determined in a dilution series test. As expected, the test organisms are substantially more sensitive to abyssomicin C in chemically defined medium.

The subject of series [9] is Rhodococcus erythropolis DSM 1069. Description: MIC dilution series test. The class given is cell-based. Particulars: CM (complex medium); 2 ml test tube scale, shaker at 120 rpm. The method, then: as §2
Series [10] has as its system Staphylococcus aureus DSM 20231. As to the kind of experiment: MIC dilution series test. Conditions: CM (complex medium); 2 ml test tube scale, shaker at 120 rpm. In kind it is cell-based. How it is done:
as §2

Another series has as its system Gram-positive bacteria. Description: agar diffusion test, activity spectrum. In kind it is cell-based. Conditions: Gram-positive bacteria tested. How it is done:
as §1

In the case of `CC1CC(C)C2(O)CC(=NO2)C2C(O)C3OC4=C(C(=O)OC42CC3C)C1=O` (stereo not drawn) [abyssomicin B], in series [1] (in methanol and DMSO), the solubility entry is “soluble”.

With `CC1CC(C)/C(O)=C2/C(=O)OC34CC(C)C5OC23C(CC4C5O)C1=O` (stereo not drawn) [abyssomicin D], the solubility result in series [1] (in methanol and DMSO) was “soluble”.

As to abyssomicin C, the inhibition zone diameter in series [2] (0.3 mg/ml) is given as 10 mm; in series [2] (1 mg/ml), 14 mm; in the series on Bacillus subtilis DSM 10 [3] (CM, 0.1 mg/ml), 10 mm; with Bacillus subtilis DSM 10 [3] (CM, 0.3 mg/ml), 12 mm; in the series with Bacillus subtilis DSM 10 [3] (CM, 1 mg/ml), 16 mm; with Bacillus subtilis DSM 10 [3] (MM, 0.1 mg/ml), 14 mm. Besides, the inhibition zone diameter with Bacillus subtilis DSM 10 [3] (MM, 0.3 mg/ml) is listed as 19 mm; with Bacillus subtilis DSM 10 [3] (MM, 1 mg/ml), 26 mm; in series [4] (CM, 0.1 mg/ml) it was 9 mm; in series [4] (CM, 0.3 mg/ml) it was 12 mm; in series [4] (CM, 1 mg/ml), 17 mm; in series [4] (MM, 0.1 mg/ml), 19 mm. The inhibition zone diameter is reported as 24 mm in series [4] (MM, 0.3 mg/ml); 30 mm in [4] (MM, 1 mg/ml); 15 mm in [5] (CM (first line, r17), 0.1 mg/ml); 18 mm in series [5] (CM (first line, r17), 0.3 mg/ml); 27 mm in [5] (CM (first line, r17), 1 mg/ml); 21 mm in series [5] (CM (second line, r18), 0.1 mg/ml). In addition, the inhibition zone diameter in [5] (CM (second line, r18), 0.3 mg/ml) was found to be 28 mm; in [5] (CM (second line, r18), 1 mg/ml), 30 mm; in series [6] (0.1 mg/ml), 9 mm; in [6] (0.3 mg/ml), 11 mm; in series [6] (1 mg/ml), 19 mm; in series [7] (0.3 mg/ml) it was 9 mm. In addition, the inhibition zone diameter in series [7] (1 mg/ml) worked out at 11 mm. Moreover, the “Minimum inhibitory concentration (MIC)” value in the series with Bacillus subtilis DSM 10 [8] (CM (complex medium)) came out at 10 µg/mL; in the series on Bacillus subtilis DSM 10 [8] (MM (chemically defined medium)), 0.1 µg/mL; in series [9], 10 µg/mL; in series [10] it was 100 µg/mL. In the series on Gram-positive bacteria, the antibiotic effect result is on record as “antibiotic effect”. The solubility entry in [1] was “soluble”.
